Several values for one entry are separate records, joined by “and”; a condition that tells them apart may be missing. Identical values can stand only once. Inconclusive results and toxic doses are left out. No stated cut-off is given here; in the data, active means T/C of 150% or more; inactive means T/C below 125%.
System: L1210 leukemia ip in BDF1 mice, survival T/C
Assay: NCI In Vivo Anticancer Drug Screen. Data for tumor model L1210 Leukemia (intraperitoneal) in B6D2F1 (BDF1) mice
Settings: endpoint: mean survival time, higher = longer survival
Method in brief: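 Read-out is survival time, reported as the treated-group measurement over the vehicle-control measurement.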

[1] = dose: 6.25 mg/kg/injection, schedule: Q01DX009 (ip), vehicle: saline with Tween-80
[2] = dose: 12.5 mg/kg/injection, schedule: Q01DX009 (ip), vehicle: saline with Tween-80
[3] = dose: 25.0 mg/kg/injection, schedule: Q01DX009 (ip), vehicle: saline with Tween-80
[4] = dose: 100.0 mg/kg/injection, schedule: Q01DX001 (ip), vehicle: carboxymethylcellulose (CMC)
[5] = dose: 100.0 mg/kg/injection, schedule: Q04DX002 (ip), vehicle: Klucel (hydroxypropylcellulose) (HPC)
[6] = dose: 200.0 mg/kg/injection, schedule: Q01DX001 (ip), vehicle: carboxymethylcellulose (CMC)
[7] = dose: 200.0 mg/kg/injection, schedule: Q04DX002 (ip), vehicle: Klucel (hydroxypropylcellulose) (HPC)
[8] = dose: 400.0 mg/kg/injection, schedule: Q01DX001 (ip), vehicle: carboxymethylcellulose (CMC)
[9] = dose: 400.0 mg/kg/injection, schedule: Q04DX002 (ip), vehicle: Klucel (hydroxypropylcellulose) (HPC)
[10] = dose: 100.0 mg/kg/injection, schedule: Q01DX009 (ip), vehicle: Klucel (hydroxypropylcellulose) (HPC)
[11] = dose: 200.0 mg/kg/injection, schedule: Q01DX009 (ip), vehicle: Klucel (hydroxypropylcellulose) (HPC)
[12] = dose: 400.0 mg/kg/injection, schedule: Q01DX009 (ip), vehicle: Klucel (hydroxypropylcellulose) (HPC)
[13] = dose: 100.0 mg/kg/injection, schedule: Q01DX009 (ip), vehicle: saline with Tween-80
[14] = dose: 100.0 mg/kg/injection, schedule: Q04DX003 (ip), vehicle: saline with Tween-80
[15] = dose: 200.0 mg/kg/injection, schedule: Q01DX009 (ip), vehicle: saline with Tween-80
[16] = dose: 200.0 mg/kg/injection, schedule: Q04DX003 (ip), vehicle: saline with Tween-80
[17] = dose: 400.0 mg/kg/injection, schedule: Q01DX009 (ip), vehicle: saline with Tween-80
[18] = dose: 400.0 mg/kg/injection, schedule: Q04DX003 (ip), vehicle: saline with Tween-80
[19] = dose: 100.0 mg/kg/injection, schedule: Q04DX003 (ip), vehicle: Klucel (hydroxypropylcellulose) (HPC)
[20] = dose: 200.0 mg/kg/injection, schedule: Q04DX003 (ip), vehicle: Klucel (hydroxypropylcellulose) (HPC)

Measured: T/C

CC(C)c1ccccc1OS(=O)(=O)c1c(F)c(F)c(F)c(F)c1F
inactive: dose: 6.25 mg/kg/injection, schedule: Q01DX001 (ip), vehicle: Klucel (hydroxypropylcellulose) (HPC) 103 % of control | [1] 108 % of control | dose: 12.5 mg/kg/injection, schedule: Q01DX001 (ip), vehicle: Klucel (hydroxypropylcellulose) (HPC) 97 % of control | [2] 101 % of control | dose: 25.0 mg/kg/injection, schedule: Q01DX001 (ip), vehicle: Klucel (hydroxypropylcellulose) (HPC) 101 % of control | [3] 103 % of control

CN1C(=O)C(C)(C)C(=O)C1(C)C
inactive: dose: 200.0 mg/kg/injection, schedule: Q01DX001 (ip), vehicle: saline 100 % of control | dose: 400.0 mg/kg/injection, schedule: Q01DX001 (ip), vehicle: saline 117 % of control

Cc1cc(Cl)ccc1OC(=O)Nc1ccc(Cl)cc1
inactive: [4] 103 % of control | dose: 100.0 mg/kg/injection, schedule: Q01DX009 (ip), vehicle: carboxymethylcellulose (CMC) 95 % of control and 101 % of control | [5] 98 % of control | dose: 100.0 mg/kg/injection, schedule: Q04DX002 (ip), vehicle: carboxymethylcellulose (CMC) 96 % of control and 90 % of control | [6] 111 % of control | dose: 200.0 mg/kg/injection, schedule: Q01DX009 (ip), vehicle: carboxymethylcellulose (CMC) 97 % of control and 111 % of control | [7] 92 % of control | dose: 200.0 mg/kg/injection, schedule: Q04DX002 (ip), vehicle: carboxymethylcellulose (CMC) 94 % of control and 97 % of control | [8] 98 % of control | dose: 400.0 mg/kg/injection, schedule: Q01DX009 (ip), vehicle: carboxymethylcellulose (CMC) 97 % of control and 86 % of control | [9] 106 % of control | dose: 400.0 mg/kg/injection, schedule: Q04DX002 (ip), vehicle: carboxymethylcellulose (CMC) 94 % of control and 90 % of control

c1ccc(C2=C(c3ccccc3)C(c3ccccc3)=C(c3ccccc3)CC2)cc1
inactive: dose: 100.0 mg/kg/injection, schedule: Q01DX001 (ip), vehicle: saline with Tween-80 89 % of control | dose: 200.0 mg/kg/injection, schedule: Q01DX001 (ip), vehicle: saline with Tween-80 89 % of control | dose: 400.0 mg/kg/injection, schedule: Q01DX001 (ip), vehicle: saline with Tween-80 86 % of control

COc1ccc(Cl)cc1NC(=O)c1cccc([N+](=O)[O-])c1
inactive: [10] 98 % of control | [11] 98 % of control | [12] 102 % of control

COC(=O)CCSP(=S)(Oc1ccccc1)Oc1ccccc1
inactive: [10] 107 % of control | [11] 105 % of control | [12] 96 % of control

CCN(C(=O)C(F)(F)F)C1(c2ccc(Cl)cc2)CCCCC1SSSC1CCCCC1(c1ccc(Cl)cc1)N(CC)C(=O)C(F)(F)F (stereo unspecified)
inactive: [13] 106 % of control | [14] 87 % of control | [15] 98 % of control | [16] 89 % of control | [17] 108 % of control | [18] 89 % of control

CCO/C=C1\SC(=S)N(c2ccc(O)cc2)C1=O
inactive: dose: 12.5 mg/kg/injection, schedule: Q01DX009 (ip), vehicle: Klucel (hydroxypropylcellulose) (HPC) 103 % of control | dose: 25.0 mg/kg/injection, schedule: Q01DX009 (ip), vehicle: Klucel (hydroxypropylcellulose) (HPC) 101 % of control | dose: 50.0 mg/kg/injection, schedule: Q01DX009 (ip), vehicle: Klucel (hydroxypropylcellulose) (HPC) 105 % of control | [10] 103 % of control | dose: 100.0 mg/kg/injection, schedule: Q01DX009 (ip), vehicle: other 104 % of control | [19] 98 % of control | dose: 100.0 mg/kg/injection, schedule: Q04DX003 (ip), vehicle: saline sonified 96 % of control | dose: 200.0 mg/kg/injection, schedule: Q01DX009 (ip), vehicle: other 108 % of control | [20] 98 % of control | dose: 200.0 mg/kg/injection, schedule: Q04DX003 (ip), vehicle: saline sonified 97 % of control | dose: 400.0 mg/kg/injection, schedule: Q04DX003 (ip), vehicle: Klucel (hydroxypropylcellulose) (HPC) 89 % of control | dose: 400.0 mg/kg/injection, schedule: Q04DX003 (ip), vehicle: saline sonified 99 % of control

CN(C)Cc1c(C(O)(c2ccccc2)c2ccccc2)ccc2ccccc12
inactive: dose: 50.0 mg/kg/injection, schedule: Q01DX001 (ip), vehicle: carboxymethylcellulose (CMC) 90 % of control | [4] 100 % of control | [6] 96 % of control | [8] 90 % of control

Cc1c2c(cc3c1[nH]c1ccccc13)C(C(F)(F)F)=NCC2
inactive: dose: 16.0 mg/kg/injection, schedule: Q01DX005 (ip), vehicle: saline 97 % of control | dose: 32.0 mg/kg/injection, schedule: Q01DX005 (ip), vehicle: saline 100 % of control | dose: 64.0 mg/kg/injection, schedule: Q01DX005 (ip), vehicle: saline 100 % of control | dose: 128.0 mg/kg/injection, schedule: Q01DX005 (ip), vehicle: saline 101 % of control

O=C(O)CCCCc1ccc(CCCCC(=O)O)cc1
inactive: dose: 50.0 mg/kg/injection, schedule: Q01DX009 (ip), vehicle: saline with Tween-80 96 % of control | [13] 106 % of control | [19] 97 % of control | [20] 104 % of control

O=C1CCCc2ccc(Cl)cc21
inactive: dose: 100.0 mg/kg/injection, schedule: Q01DX009 (ip), vehicle: saline 96 % of control | dose: 200.0 mg/kg/injection, schedule: Q01DX009 (ip), vehicle: saline 97 % of control | dose: 400.0 mg/kg/injection, schedule: Q01DX009 (ip), vehicle: saline 94 % of control

CC1(C)OC2C(C=O)OC(n3cnc4c(N)ncnc43)C2O1 (stereo unspecified)
inactive: dose: 100.0 mg/kg/injection, schedule: Q04DX003 (ip), vehicle: alcohol 102 % of control | dose: 200.0 mg/kg/injection, schedule: Q04DX003 (ip), vehicle: alcohol 102 % of control | dose: 400.0 mg/kg/injection, schedule: Q04DX003 (ip), vehicle: alcohol 96 % of control

CC(=O)CC(=O)C(F)(F)F.CC(=O)CC(=O)C(F)(F)F.CC(=O)CC(=O)C(F)(F)F.CC(=O)CC(=O)C(F)(F)F.[Hf]
inactive: [5] 104 % of control | [7] 93 % of control | [9] 96 % of control

C#CCNC(=O)NCCCl
inactive: [13] 97 % of control | [14] 101 % of control | [15] 99 % of control | [16] 104 % of control | [17] 97 % of control | [18] 101 % of control

CCOC(=O)C1(C(=O)OCC)C(C)CC(O)N1C(=O)c1cc2c(cc1[N+](=O)[O-])OCO2 (stereo unspecified)
inactive: dose: 25.0 mg/kg/injection, schedule: Q04DX003 (ip), vehicle: Klucel (hydroxypropylcellulose) (HPC) 94 % of control | dose: 50.0 mg/kg/injection, schedule: Q04DX003 (ip), vehicle: Klucel (hydroxypropylcellulose) (HPC) 94 % of control | [19] 89 % of control

N#CC1(C#N)C(c2ccccc2)C1(C#N)C#N
inactive: [1] 107 % of control | dose: 6.25 mg/kg/injection, schedule: Q04DX003 (ip), vehicle: saline sonified 102 % of control | [2] 105 % of control | dose: 12.5 mg/kg/injection, schedule: Q04DX003 (ip), vehicle: saline sonified 113 % of control | [3] 105 % of control | dose: 25.0 mg/kg/injection, schedule: Q04DX003 (ip), vehicle: saline sonified 96 % of control

CCC(C)N=Cc1ccccc1O.CCC(C)N=Cc1ccccc1O.[Cu] (stereo unspecified)
inactive: dose: 9.5 mg/kg/injection, schedule: Q01DX001 (ip), vehicle: other 100 % of control | dose: 19.0 mg/kg/injection, schedule: Q01DX001 (ip), vehicle: other 107 % of control | dose: 38.0 mg/kg/injection, schedule: Q01DX001 (ip), vehicle: other 100 % of control

Source: PubChem BioAssay AID248 (DTP/NCI, 2004)
